From patent publication US4535081A, “Antiallergic and antiulcer 1-oxo-1H-thiazolo[3,2-a]pyrimidine-2-carboxamides and intermediates therefor” (Pfizer Inc., priority 1983, dated 1985)
Entries after “also recorded” stand apart in the source; their conditions may differ.

Tests used:
Stability = assay type: physicochemical; settings: solid state, with standard diluents / inert ingredients, or in solution
[1] = test system: cold-restraint stress gastric ulcer; test: Cold-restraint stressed rat ulcer assay; assay type: in vivo
Experimental: The effectiveness of the products of this invention as anticulcer agents is determined by the so-called cold-restraint stressed rat assay. In this test non-fasted female rats (Charles River C-D strain) weighing 70-140 gms. are administered the drug or carrier (control animals) intraperitoneally (in saline solution containing 1% carboxymethylcellulose and 0.1% Tween 80) or orally (in water) three hours before being lightly anesthetized with ether and taped in the supine position to individual sheets of plexiglass. After recovery from anesthesia, the restrained animals are positioned horizontally in a refrigerator maintained at 10°-12° C. and three hours later sacrificed by cervical dislocation. The abdomen of each rat is opened, the pylorus clamped, the stomach inflated with saline via an oral tube, the esophagus clamped and the stomach excised. The stomachs are placed in a 0.4% formaldehyde solution for approximately 30 seconds to harden the outer layers and facilitate examination. Each stomach is then cut open along the greater curvature and the glandular portion (hind stomach) examined for damage. The number of gastric erosions, their severity and the color of the stomachs is recorded. […]

[2] = Oral absorption and plasma concentrations, rats; assay type: in vivo, rat
Experimental: This is supported by the observations of plasma concentrations of 3 to 7 μg/ml one hour after oral administration of III, 50 to 300 mg/kg.

[3] = test system: IgE (reaginic antiserum) PCA reaction; test: Oral activity in PCA test, IgE; assay type: in vivo, rat
Experimental: The antiallergy property of the compounds of this invention is evaluated by the passive cutaneous anaphylaxis (PCA) test (Ovary, J. Immun., 81, 355, 1958). In the PCA test, normal animals are injected intradermally (i.d.) with antibodies contained in serum obtained from actively sensitized animals. The animals are then challenged intravenously with antigen mixed with a dye such as Evans' Blue. The increased capillary permeability caused by the antigen-antibody reaction causes the dye to leak from the site of the antibody injection. The test animals are then asphyxiated and the intensity of the reaction determined by measuring the diameter and intensity of the blue coloration on the inner surface of the animals' skin.
The PCA test is a measure of the anti-allergic (especially anti-asthmatic) activity of a compound. Compounds which inhibit a positive PCA test induced by the rat immunochemical counterpart of human immunoglobulin E (IgE), or reagin, are considered to have anti-allergic activity (C. Mota, Ann. N.Y. Acad. Sci., 103, 264 1963). (Reagin is primarily immunoglobulin E [IgE] and is the principal immunoglobulin responsible for allergic asthma, anaphylaxis, hay fever, food sensitivities and certain manifestations of drug sensitivities, although recent evidence ascribes to the IgG class of antibodies a significant role in the mediation of allergic diseases). Such compounds when administered to a sensitized subject, human or animal, prior to the time when the subject comes into contact with antigens or substances to which it is allergic, will prevent the allergic reaction which would otherwise occur. They, therefore, provide a method for the prophylactic treatment of allergy or anaphylactic reactions of a reagin mediated nature.
To put it another way, such compounds block the release of mediators resulting from the antigen-antibody (allergic) reaction as illustrated in the PCA test using rat homocytotropic antibody--a known correlate of human reaginic antibody. Inhibition of reaginic antigen-antibody reactions in rats, the test animal of the PCA test, is regarded as representative of inhibition of human reaginic antigen-antibody reactions which occur during allergic episodes.
The ability of agents to interfere with PCA reactions is measured in male Charles River Wistar rats, 170-210 g. Reaginic antiserum, rich in IgE antibodies, is prepared according to Petillo et al., Int. Arch. Allergy, 44, 309 (1973). Hyperimmune antiserum rich in IgG antibodies to hen egg albumin is prepared according to Orange et al., J. Exptl. Med., 127, 767 (1968). Forty-eight hours prior to antigen challenge, the reaginic antiserum is injected intradermally (i.d.) into the shaved skin of a normal rat's back; 5 hours before challenge the hyperimmune antisera is similarly injected. At a third site 60 mcg. histamine dihydrochloride and 0.5 mcg. serotonin creatinine sulfate are injected i.d. just prior to antigen challenge as a check for antihistaminic, antiserotonin and unspecific types of blockage; the compounds of the instant invention or saline are then administered i.v. and immediately followed by the challenge of 5 mg. egg albumen and 2.5 mg. Evans' Blue dye in saline. In the case of oral administration Evans' Blue dye and egg albumin are given 5 minutes after administration of the drug. Thirty minutes later the animals are asphyxiated using chloroform and the skin of the back removed and reversed for observation. A score is assigned each injection site equal to the product of the diameter of the site in mm. and a grade of 0.1, 0.5, 1, 2, 3 or 4 proportional to intensity of dye coloration. The scores for a given injection site are summed for each group of five animals and compared to the saline treated controls. The difference is expressed as percent blockage due to the compound employed. […]

[4] = test system: isolated guinea pig ileum (slow reacting substance of anaphylaxis); test: Isolated ileum spasm, slow reacting substance of anaphylaxis; settings: 10^-8 to 10^-4 M
[5] = test system: ulcerogenic effects of aspirin; test: Protection against ulcerogenic effects of aspirin; assay type: in vivo; settings: p.o.; aspirin 100 mg/kg p.o.
Experimental: Compound III also protects against the ulcerogenic effects of aspirin, 100 mg/kg p.o. where dose-related effects are seen over the dose range of 10 to 1000 μg/kg, p.o. with an ED50 of 100 μg/kg. Compound III is also active in a phenylbutazone gastric ulcer model where an oral ED50 of 200 μg/kg is observed. […] "Cytoprotective," a term coined recently to describe the antiulcer effects of prostaglandins that are independent of antisecretory activity, [Robert, Advances in Prostaglandin and Thromboxane Research 2, 507 (1976); Miller et al., Gut 20, 75 (1979); Robert et al., Gastroenterology 72, 1121 (1977).] aptly characterizes the effects of compound III.

bone marrow = test: Bone marrow chromosomal damage, mice; assay type: in vivo, mouse; settings: single oral 40 mg/kg; 6, 12 or 24 hours
Experimental: Single oral doses of III, 40 mg/kg, were administered to groups of mice who were sacrificed 6, 12 or 24 hours later. […] From these findings, it is evident that III has no obvious mutagenic potential.

## O=C(Nc1nnn[nH]1)c1cnc2sc3c(n2c1=O)CCCC3 [Compound III, N-(5-Tetrazolyl)-1-oxo-1H-cyclohexenothiazolo[3,2-a]pyrimidine-2-carboxamide]
Stability
  stability: highly stable in a pure solid state, as well as in the presence of standard pharmaceutical diluents and in solution; also recorded: exceptionally good stability
[1]; oral
  oral dose range of dose-related protection, cold-restraint stress: 0.003 to 0.1 mg/kg
[1]; rat, in vivo
  potency in cold-restraint stress gastric ulcer procedure: extremely potent; also recorded: highly potent
[2]; one hour after oral 50 to 300 mg/kg, 60 min
  plasma concentration: 3000 to 7000 ng/mL
[2]; ratio of comparably effective oral and intravenous doses, PCA test
  oral absorption: good oral absorption
[3]; Rattus norvegicus, IgE, oral, 3 mg./kg., read-out: Oral Activity (% of Protection) in the PCA Test, IgE
  inhibition in vivo at 3 mg/kg: 47%
[3]; oral
  oral activity: excellent oral activity
[3]; rat, in vivo
  dose range for antiallergy effects: 1 to 10 mg/kg
[4]
  antagonism of spasm of isolated guinea pig ileum: does not antagonize spasms
[5]
  dose range of dose-related effects, aspirin ulcer: 0.01 to 1 mg/kg
Bone marrow
  chromosomal damage in bone marrow, single dose: did not reveal any chromosomal damage
